Common to all, as to assay type: in vivo
In data set [1] the test system is Echinochloa crus-galli var. crus-galli. The experiment in a line: Test Example 4: herbicidal effect by soil treatment (symbol H). The note with it: application herbicide amount 320 g/ha. The gist of the method: (§1)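 Seeds were sown in sterilized diluvial soil, covered with about 1.5 cm of soil, and the soil surface was sprayed with a water-diluted emulsion of the compound at a predetermined rate. Plants grew in a greenhouse at 25° C. to 30° C.; effects were scored visually 3 weeks after application.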

Data set [2] relates to Leptochloa chinensis. The experiment in a line: Test Example 3: herbicidal effect by foliage application, Wagner pot (symbol D). Conditions: application herbicide amount 320 g/ha. The gist of the method:
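Seeds sown in alluvial soil kept under 0.1–0.5 cm water, greenhouse 25–30 °C; 14 d growth. Leaves treated by small sprayer with water-diluted emulsion at a predetermined rate. Effect graded by set scale, 3 weeks.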

Data set [3] concerns Chenopodium album. Put plainly: Test Example 4: herbicidal effect by soil treatment (symbol O). The note with it: application herbicide amount 320 g/ha. The method in brief:
as §1

In data set [4] the test system is Veronica persica. The experiment in a line: Test Example 5: herbicidal effect by foliage application, plastic box (symbol R). The note with it: 320 g/ha, 3 weeks after application. The gist of the method: (§2)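 Leaf-applied emulsion, water-diluted to a preset herbicide dose, on two-week-old seedlings raised in a 25° C. to 30° C. greenhouse; injury rated at 3 weeks using earlier criteria.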

The test system of data set [5] is Echinochloa oryzacola Vasing. The experiment in a line: Test Example 2: herbicidal activity, application during weed generation in submerged conditions (symbol A). Conditions: Table 23; application herbicide amount 320 g/ha; grade 0-5 by criteria of Test Example 1. The gist of the method:
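Each pot contained alluvial soil under 4 cm of water with seeds of all three weeds sown together. Following growth at 25° C. to 30° C. to the one- to two-leaf stage, the floodwater received diluted emulsion at a predetermined amount; visual assessment followed at 3 weeks.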

For data set [6], the system named is Avena fatua. The experiment in a line: Test Example 4: herbicidal effect by soil treatment (symbol I). The note with it: application herbicide amount 320 g/ha. The method in brief: as §1
Data set [7] has as its system Chenopodium album. Put plainly: Test Example 5: herbicidal effect by foliage application, plastic box (symbol O). The note with it: 320 g/ha, 3 weeks after application. The method in brief:
as §2

Data set [8] concerns Setaria viridis. Put plainly: Test Example 5: herbicidal effect by foliage application, plastic box (symbol G). The note with it: 320 g/ha, 3 weeks after application. The gist of the method: as §2
In data set [9] the test system is Digitaria ciliaris. Put plainly: Test Example 4: herbicidal effect by soil treatment (symbol F). Conditions: application herbicide amount 320 g/ha. The gist of the method:
as §1

Data set [10] concerns Lolium multiflorum Lam. The experiment in a line: Test Example 4: herbicidal effect by soil treatment (symbol K). Conditions: application herbicide amount 320 g/ha. The method in brief:
as §1

Data set [11] deals with corn. Put plainly: Test Example 5: effect on crop by foliage application, plastic box (symbol c). The note with it: 320 g/ha, 3 weeks after application. The method in brief: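 A greenhouse held between 25° C. and 30° C. was used to grow plants sown spot-wise, beneath ~1.5 cm of soil, in boxes of sterilized diluvial soil.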
Data set [12] deals with transplanted rice plant. Put plainly: Test Example 1: effect on crop, application before weed generation in submerged conditions (symbol a). Conditions: application herbicide amount 320 g/ha. The gist of the method:
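Rice at 2.5 leaf stage transplanted into submerged soil (4 cm depth) sown with three weed species; herbicide applied before weed emergence.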

Data set [13] concerns Veronica persica. The experiment in a line: Test Example 4: herbicidal effect by soil treatment (symbol R). The note with it: application herbicide amount 320 g/ha. The method in brief:
as §1

For data set [14], the system named is Avena fatua. The experiment in a line: Test Example 5: herbicidal effect by foliage application, plastic box (symbol I). The note with it: 320 g/ha, 3 weeks after application. The method in brief: as §2

Consider `CON=C(C)CC1CC(OC(=O)CCCC(C)=O)=C(c2c(C)cc(-c3ccc(Cl)cc3)cc2C)C1=O` (centres unmarked) [6-080], for which, in data set [1], the “H: Echinochloa crus-galli var. crus-galli, herbicidal effect grade” value was 5 (Herbicidal ratio of 90% or more (almost completely withered)). Besides, in data set [2], the “herbicidal effect on D (Leptochloa chinensis), grade 0-5” value (“herbicidal effect on D” for short) was 5 (Herbicidal ratio of 90% or more (almost completely withered)). Moreover, in data set [3], the “O: Chenopodium album, herbicidal effect grade” value is recorded as 0 (Herbicidal ratio of 5% or lower (almost no effect)). Further, the “R: Veronica persica, herbicidal effect (criteria of Test Example 1)” value in [4] is 4 (Herbicidal ratio of 70% or higher and lower than 90%). Also, the “Herbicidal effect grade, A: Echinochloa oryzacola Vasing.” value in [5] was 5 (Herbicidal ratio of 90% or more (almost completely withered)). For the same compound, the “I: Avena fatua, herbicidal effect grade” value in [6] is 0 (Herbicidal ratio of 5% or lower (almost no effect)). Besides, the “O: Chenopodium album, herbicidal effect (criteria of Test Example 1)” value in data set [7] is on record as 0 (Herbicidal ratio of 5% or lower (almost no effect)). In addition, the “G: Setaria viridis, herbicidal effect (criteria of Test Example 1)” value (“G: Setaria viridis, herbicidal effect” below) in [8] was 5 (Herbicidal ratio of 90% or more (almost completely withered)). In addition, the “F: Digitaria ciliaris, herbicidal effect grade” value in data set [9] is recorded as 5 (Herbicidal ratio of 90% or more (almost completely withered)). For the same compound, the “K: Lolium multiflorum Lam., herbicidal effect grade” value in [10] is listed as 5 (Herbicidal ratio of 90% or more (almost completely withered)). In addition, the “c: corn, effect on crop (criteria of Test Example 1)” value (“c: corn, effect on crop” for short) in data set [11] was 5 (Herbicidal ratio of 90% or more (almost completely withered)). Also, the “Effect grade on crop, a: transplanted rice plant” value (“Effect grade on crop” below) in [12] is reported as 5 (Herbicidal ratio of 90% or more (almost completely withered)). Further, the “R: Veronica persica, herbicidal effect grade” value in data set [13] is 0 (Herbicidal ratio of 5% or lower (almost no effect)). In data set [14], the “I: Avena fatua, herbicidal effect (criteria of Test Example 1)” value is given as 5 (Herbicidal ratio of 90% or more (almost completely withered)).
Turning to `CON=C(C)CC1CC(O)=C(c2c(C)cc(C)cc2SC)C1=O` (centres unmarked) [6-075], in [1], the “H: Echinochloa crus-galli var. crus-galli, herbicidal effect grade” value is reported as 0 (Herbicidal ratio of 5% or lower (almost no effect)). In addition, the “herbicidal effect on D” value in [2] was 3 (Herbicidal ratio of 40% or higher and lower than 70%). For the same compound, the “O: Chenopodium album, herbicidal effect grade” value in [3] was 0 (Herbicidal ratio of 5% or lower (almost no effect)). Moreover, the “R: Veronica persica, herbicidal effect (criteria of Test Example 1)” value in data set [4] is 0 (Herbicidal ratio of 5% or lower (almost no effect)). Further, the “Herbicidal effect grade, A: Echinochloa oryzacola Vasing.” value in [5] is 1 (Herbicidal ratio of 5% or higher and lower than 20%). Also, the “I: Avena fatua, herbicidal effect grade” value in data set [6] is given as 0 (Herbicidal ratio of 5% or lower (almost no effect)). The “O: Chenopodium album, herbicidal effect (criteria of Test Example 1)” value in data set [7] is 0 (Herbicidal ratio of 5% or lower (almost no effect)). Moreover, the “G: Setaria viridis, herbicidal effect” value in data set [8] is reported as 0 (Herbicidal ratio of 5% or lower (almost no effect)). The “F: Digitaria ciliaris, herbicidal effect grade” value in data set [9] is listed as 0 (Herbicidal ratio of 5% or lower (almost no effect)). The “K: Lolium multiflorum Lam., herbicidal effect grade” value in [10] is 4 (Herbicidal ratio of 70% or higher and lower than 90%). Further, in data set [11], the “c: corn, effect on crop” value is 4 (Herbicidal ratio of 70% or higher and lower than 90%). In addition, the “Effect grade on crop” value in [12] was 3 (Herbicidal ratio of 40% or higher and lower than 70%). The “R: Veronica persica, herbicidal effect grade” value in data set [13] is listed as 0 (Herbicidal ratio of 5% or lower (almost no effect)). Further, the “I: Avena fatua, herbicidal effect (criteria of Test Example 1)” value in [14] is 5 (Herbicidal ratio of 90% or more (almost completely withered)).
Turning to `CON=C(C)CC1CC(O)=C(c2c(C)cc(-c3ccc(Cl)cc3Cl)cc2C)C1=O` (centres unmarked) [6-088], the “Herbicidal effect grade, H: Echinochloa crus-galli var. crus-galli” value in [1] is on record as 5 (Herbicidal ratio of 90% or more (almost completely withered)). The “herbicidal effect on D” value in data set [2] is reported as 5 (Herbicidal ratio of 90% or more (almost completely withered)). In addition, the “Herbicidal effect grade, O: Chenopodium album” value in data set [3] is listed as 5 (Herbicidal ratio of 90% or more (almost completely withered)). Further, the “R: Veronica persica, herbicidal effect (criteria of Test Example 1)” value in data set [4] is 5 (Herbicidal ratio of 90% or more (almost completely withered)). Also, the “Herbicidal effect grade, A: Echinochloa oryzacola Vasing.” value in [5] is 4 (Herbicidal ratio of 70% or higher and lower than 90%). For the same compound, the “Herbicidal effect grade, I: Avena fatua” value in data set [6] was 5 (Herbicidal ratio of 90% or more (almost completely withered)). Moreover, in [7], the “O: Chenopodium album, herbicidal effect (criteria of Test Example 1)” value is 5 (Herbicidal ratio of 90% or more (almost completely withered)). In addition, the “G: Setaria viridis, herbicidal effect” value in data set [8] was 5 (Herbicidal ratio of 90% or more (almost completely withered)). Further, in data set [9], the “Herbicidal effect grade, F: Digitaria ciliaris” value is on record as 5 (Herbicidal ratio of 90% or more (almost completely withered)). Further, the “Herbicidal effect grade, K: Lolium multiflorum Lam.” value in data set [10] is 5 (Herbicidal ratio of 90% or more (almost completely withered)). In addition, in [11], the “c: corn, effect on crop” value is 2 (Herbicidal ratio of 20% or higher and lower than 40%). In addition, in [12], the “Effect grade on crop” value was 3 (Herbicidal ratio of 40% or higher and lower than 70%). For the same compound, the “Herbicidal effect grade, R: Veronica persica” value in [13] was 4 (Herbicidal ratio of 70% or higher and lower than 90%). Further, the “I: Avena fatua, herbicidal effect (criteria of Test Example 1)” value in [14] is 5 (Herbicidal ratio of 90% or more (almost completely withered)).
For `CON=C(C)CC1CC(OC(=O)N2CCOCC2)=C(c2c(C)cc(-c3ccc(Cl)cc3)cc2OC)C1=O` (centres unmarked) [6-078, 2-(4′-chloro-3-methoxy-5-methyl-[1,1′-biphenyl]-4-yl)-4-{2-(methoxyimino)propyl}-3-oxocyclopent-1-ene-1-yl morpholine-4-carboxylate], in data set [1], the “H: Echinochloa crus-galli var. crus-galli, herbicidal effect grade” value is reported as 0 (Herbicidal ratio of 5% or lower (almost no effect)). For the same compound, the “herbicidal effect on D” value in data set [2] is recorded as 5 (Herbicidal ratio of 90% or more (almost completely withered)). For the same compound, the “O: Chenopodium album, herbicidal effect grade” value in [3] was 0 (Herbicidal ratio of 5% or lower (almost no effect)). The “R: Veronica persica, herbicidal effect (criteria of Test Example 1)” value in data set [4] was 3 (Herbicidal ratio of 40% or higher and lower than 70%). Moreover, the “Herbicidal effect grade, A: Echinochloa oryzacola Vasing.” value in data set [5] is 4 (Herbicidal ratio of 70% or higher and lower than 90%). In data set [6], the “I: Avena fatua, herbicidal effect grade” value is 3 (Herbicidal ratio of 40% or higher and lower than 70%). Also, the “O: Chenopodium album, herbicidal effect (criteria of Test Example 1)” value in [7] is 1 (Herbicidal ratio of 5% or higher and lower than 20%). Further, the “G: Setaria viridis, herbicidal effect” value in data set [8] is 5 (Herbicidal ratio of 90% or more (almost completely withered)). Moreover, the “F: Digitaria ciliaris, herbicidal effect grade” value in [9] is given as 5 (Herbicidal ratio of 90% or more (almost completely withered)). For the same compound, the “K: Lolium multiflorum Lam., herbicidal effect grade” value in data set [10] was 0 (Herbicidal ratio of 5% or lower (almost no effect)). Further, in [11], the “c: corn, effect on crop” value is recorded as 5 (Herbicidal ratio of 90% or more (almost completely withered)). Also, the “Effect grade on crop” value in data set [12] was 5 (Herbicidal ratio of 90% or more (almost completely withered)). In addition, the “R: Veronica persica, herbicidal effect grade” value in data set [13] was 0 (Herbicidal ratio of 5% or lower (almost no effect)). For the same compound, in [14], the “I: Avena fatua, herbicidal effect (criteria of Test Example 1)” value is listed as 5 (Herbicidal ratio of 90% or more (almost completely withered)).
